Reference: paper PMC11242996, “IL-6 Inhibitory Compounds from the Aerial Parts of Piper attenuatum and Their Anticancer Activities on Ovarian Cancer Cell Lines” (Molecules, 2024)
Where two headings read alike, the source gives them in different places.

Key:
[1] = tested on: paclitaxel-resistant SKOV3 (SKOV3-TR) cells; test: CCK-8 cytotoxicity assay, SKOV3-TR; type: cell-based; conditions: Homo sapiens, SKOV3TR, CCK-8, 24 h
Source text: (§1) However, despite chemotherapy, many patients die of ovarian cancer recurrence. Inflammatory mediators such as IL-6 and several other cytokines influence drug resistance and recurrence in ovarian cancer.
(§2) The human epithelial ovarian cancer cell lines SKOV3 and A2780 were purchased from the Korean Cell Line Bank (KCLB, Seoul, Republic of Korea) and the European Collection of Cell Cultures (ECACC, Wiltshire, UK), respectively. The cisplatin-resistant A2780 (A2780-cis) and paclitaxel-resistant SKOV3 (SKOV3-TR) cells were obtained from Yonsei University (Institute of Women’s Life Medical Science, Division of Gynecological Oncology, Republic of Korea). SKOV3, SKOV3-TR, A2780, and A2780-cis cells were cultured in the RPMI-1640 medium (Welgene, Daegu, Republic of Korea). SKOV3-TR and A2780-cis cells were cultured in 100 nM paclitaxel (Cayman Chemical Company, Ann Arbor, MI, USA) and 1 µM cisplatin (Dong-A Pharmaceutical Co., Seoul, Republic of Korea), respectively. All the culture media were supplemented with 10% (v/v) fetal bovine serum and 1% penicillin or streptomycin (Gibco-BRL, Gaithersburg, MD, USA), and the cells were maintained at 37 °C in a humidified atmosphere of 5% CO2 and 95% air. Each culture medium was replaced with a fresh medium every 2–3 days.
(§3) A CCK-8 assay was performed to assess cytotoxicity. After seeding 5 × 10^5 cells/300 µL in 48-well plates, the cells were treated with the isolated compounds at 1, 5, 10, 20, 40, and 60 μM concentrations for 24 h. For the CCK-8 analysis, 30 μL of the CCK-8 solution (Dojindo, Kumamoto, Japan) was added to each well, allowed to react for 1 h, and then, the optical density value was measured at 450 nm using an ELISA microplate reader (Epoch, BioTek Instruments, Winooski, VT, USA). All the experiments were performed in triplicates. The IC50 values were calculated from a log([drug]) versus normalized response curve fit using GraphPad Prism version 5.00 for Windows (GraphPad Software, San Diego, CA, USA).

[2] = tested on: cisplatin-resistant A2780 (A2780-cis) cells; test: CCK-8 cytotoxicity assay, A2780-cis; type: cell-based; conditions: Homo sapiens, A2780cis, CCK-8, 24 h
Source text: as §1, §2, §3

[3] = Cytotoxicity (CC50) in HEK-Blue IL-6 cells; type: cell-based; conditions: human, from extrapolated concentration-response curves
Procedure: (§4) The HEK-Blue™ IL-6 cells purchased from InvivoGen (San Diego, CA, USA) were used to seed 3 × 10^4 cells/200 µL in a 96-well plate. Each well was treated with different concentrations (0, 0.1, 1, 5, 10, 50, and 100 μM) of the isolated compounds. Recombinant human IL-6 (BioLegend, San Diego, CA, USA) was administered at 10 ng/mL. After 24 h, 20 μL of the cell suspension was added to 180 μL of QUANTI-Blue™ solution (InvivoGen, San Diego, CA, USA) in a fresh 96-well plate. After incubation at 37 °C for 2 h, the absorbance was measured spectrophotometrically (Epoch, BioTek Instruments, Winooski, VT, USA) at 635 nm. The EC50 values were calculated from a log([drug]) versus normalized response curve fit using GraphPad Prism version 5.00 for Windows (GraphPad Software, San Diego, CA, USA). The CC50 values were calculated from extrapolated concentration–response curves plotted with GraphPad Prism version 5.0 for Windows (GraphPad Software, San Diego, CA, USA) using inhibitory percentages versus the drug concentration logarithm.

[4] = tested on: IL-6 activity in HEK-Blue™ IL-6 cells; test: IL-6 inhibition bioassay using HEK-Blue IL-6 cells (STAT3-inducible SEAP reporter, QUANTI-Blue); type: cell-based, human; conditions: for EC50: 10 ng/mL IL-6, 24 h, SEAP readout, read-out: EC50 (IL-6 inhibitory activity); for inhibition of IL-6 activity: 10 ng/ml hIL-6, 24 h (Figure S22)
Procedure: We isolated eighteen compounds from P. attenuatum and assessed their inhibitory effects on IL-6 activity using the HEK-Blue™ IL-6 cell line. As the HEK-Blue™ IL-6 cells were transfected with a reporter gene expressing STAT3-inducible secreted embryonic alkaline phosphatase (SEAP), STAT3 was activated, and SEAP was produced when the cells were stimulated with IL-6. The extent of the inhibition of IL-6 downstream signaling by these compounds was assessed in vitro using bazedoxifene (gp130 inhibitor) as a positive control in the HEK-Blue™ IL-6 cells. Bazedoxifene is a newly developed third-generation indole-based estrogen receptor (ER) ligand used in the treatment of postmenopausal osteoporosis, also known as gp130 inhibitor.
The cells were treated with increasing concentrations of the eighteen isolated compounds (0, 0.1, 1, 5, 10, 50, and 100 μM) in the presence of 10 ng/mL IL-6.
as §4

[5] = tested on: A2780 cells; test: CCK-8 cytotoxicity assay, A2780; type: cell-based, human; conditions: CCK-8, 24 h
Source text: as §1, §2, §3

[6] = tested on: SKOV3 cells; test: CCK-8 cytotoxicity assay, SKOV3; type: cell-based, human; conditions: CCK-8, 24 h
Source text: as §1, §2, §3

[7] = Homo sapiens, HEK-Blue IL-6, 24 h

Row | SMILES | IC50 [1] | IC50 [2] | CC50 at 24 h [3] | TI (therapeutic index, CC50/EC50) [4] | EC50 [4] | EC50 [4, 7] | TI (therapeutic index, CC50/EC50) ([4]; listed as bazedoxifene) | IC50 ([5]; Homo sapiens, A2780, 24 h) | IC50 ([6]; Homo sapiens, SK-OV-3, 24 h) | inhibition of IL-6 activity [4] | IC50 [5] | IC50 [6]
1 | Cc1c(-c2ccc(O)cc2)n(Cc2ccc(OCCN3CCCCCC3)cc2)c2ccc(O)cc12 [Bazedoxifene, bazedoxifene, reference compound] | 20.32 ± 0.2 µM | 33.8 ± 0.15 µM | 4.07 ± 0.35 µM | 2.14 ± 0.78 | 1.91 ± 0.43 µM | 1.91 ± 2.84 µM | 2.14 | 8.2 ± 1.77 µM | 7.25 ± 0.62 µM | – | – | –
2 | COc1ccc(CC2=C(Cc3ccc4c(c3)OCO4)C(=O)NC2OC)cc1OC (stereo not drawn) [Compound 3, piperimide III] | 41 ± 1.18 µM | 40.5 ± 1.11 µM | 28.7 ± 0.19 µM | – | – | 3.52 ± 0.14 µM | – | 17.5 ± 0.19 µM | 15.76 ± 0.15 µM | approximately 50% | – | –
3 | COc1ccc(C[C@H]2COC(=O)[C@@H]2Cc2ccc(OC)c(OC)c2)cc1OC [Compound 4, (-)-dimethylmatairesinol] | 33 ± 0.5 µM | 16.9 ± 0.19 µM | 22.6 ± 0.25 µM | – | – | 4.06 ± 0.07 µM | – | 20.6 ± 0.25 µM | 20.04 ± 0.18 µM | approximately 50% | – | –
4 | CC(=O)/C=C/[C@@]1(O)C(C)=CC(=O)CC1(C)C [Compound 11, (6S)-dehydrovomifoliol] | 19.9 ± 0.22 µM | 14.4 ± 0.21 µM | 13.72 ± 0.11 µM | – | – | 2.12 ± 0.04 µM | – | ~10 µM | ~10 µM | approximately 50% | 9.8 ± 0.11 µM | 10.7 ± 0.14 µM
5 | CC1(C)C[C@@H](O)C[C@@]2(C)OC(=O)C=C12 [Compound 12, (-)-loliolide] | 6.44 ± 0.1 µM | 16.6 ± 0.18 µM | 10.6 ± 0.1 µM | – | – | 0.91 ± 0.04 µM | – | ~10 µM | ~10 µM | approximately 50% | 8.62 ± 0.1 µM | 10.7 ± 0.31 µM
6 | O=c1cc(-c2ccc(O)cc2)oc2c(C3OC(CO)C(O)C(O)C3OC3OCC(O)(CO)C3O)c(O)cc(O)c12 (stereo not drawn) [Compound 17, ficuflavoside] | 40.3 ± 0.85 µM | 41 ± 0.63 µM | 32.5 ± 0.45 µM | – | – | 1.31 ± 0.05 µM | – | 21.8 ± 0.45 µM | 26.6 ± 0.3 µM | approximately 50% | – | –
